Results on four compounds are retold here after patent publication US20220040086A1, “FORMULATION AND AEROSOL CANISTERS, INHALERS, AND THE LIKE CONTAINING THE FORMULATION” (KINDEVA DRUG DELIVERY L.P., priority 2018, published 2022).

SMILES strings stand for the structures.

For data set [1] the following is noted: 30 mg in 30 mL 2H,3H-decafluoropentane, sonic probe 1 minute.
Experimental: 30 mg of the resulting anhydrous ipratropium bromide was added to a glass sample jar followed by 30 mL of 2H,3H-decafluoropentane.
For data set [2] the following is noted: 50 mg in 2 g Malvern dispersant (lecithin in isooctane), sonicated 3 minutes.
For data set [3] the following is noted: general statement. The text has this:
The two formulations were examined by microscope after 2 and 4 weeks storage at ambient temperature and humidity. Each vial was sprayed onto a microscope slide via a standard 3M MK6 actuator.

Data set [4] in a line: Differential scanning calorimetry thermogram. It counts as physicochemical. Particulars: DSC thermogram. The text has this:
Ipratropium, in particular ipratropium bromide, is commercially available as a hydrate, and more particularly as the monohydrate. Dehydration of hydrated ipratropium, in particular ipratropium bromide monohydrate, can be achieved by any suitable method. […] A particularly suitable method is heating the particulate ipratropium, in particular ipratropium bromide monohydrate, in a drying oven for a period of time. The drying oven can be heated to a temperature high enough to remove the water. […] Useful oven temperatures at ambient pressure include at least 100° C., at least 110° C., at least 120° C., at least 125° C., no greater than 240° C., no greater than 230° C., no greater than 225° C., between 100° C. and 240° C., between 110° C. and 230° C., between 120° C. and 220° C., between 125° C. and 215° C., or more particularly about 125° C. The use of pressures less than ambient pressure, such as in a vacuum oven, can be useful in reducing the temperature for dehydration. The time necessary to dehydrate the particulate ipratropium, in particular ipratropium bromide monohydrate, is the amount of time it takes to remove the desired amount of water from the particulate ipratropium. If the amount of water in a sample of particulate ipratropium is known, complete dehydration is complete when the mass of the remaining ipratropium is essentially anhydrous ipratropium. […]
(In general: DSC measures the heat that a sample takes up or gives off during a temperature scan.)

A short description of data set [5]: Rehydration of anhydrous ipratropium bromide (sample weight over time). It counts as physicochemical. On the procedure: The weight of the powder after heating was 9.563 g. The sample was weighed every 10 minutes for 90 minutes and then left over the weekend at 24° C. and 30% humidity.
The sample was then placed in a desiccator for 24 hours and weighed again.

For `CC(C)[N+]1(C)[C@@H]2CC[C@H]1C[C@@H](OC(=O)C(CO)c1ccccc1)C2.O.[Br-]` (stereo partly shown) [micronized ipratropium bromide monohydrate], the “agglomeration observed with magnifying glass (x10)” value in data set [1] was “not”. In data set [2], the “agglomerates under a microscope” value is listed as “essentially free of agglomerates” and the dispersion appearance result is reported as “dispersed satisfactorily”.

Take `CC(C)[N+]1(C)[C@@H]2CC[C@H]1CC(OC(=O)C(CO)c1ccccc1)C2.[Br-]` (stereo partly shown) [anhydrous micronized ipratropium bromide]: the “stability when formulated in a HFA propellant” value in data set [3] is on record as “stable”.

With `CC(C)[N+]1(C)[C@@H]2CC[C@H]1C[C@@H](OC(=O)C(CO)c1ccccc1)C2.O.[Br-]` (stereo partly shown) [ipratropium bromide monohydrate], in data set [4], the degradation temperature result was “approximately 240 °C” and the “water loss starting temperature” value is “approximately 100 °C”.

For the compound `CC(C)[N+]1(C)[C@@H]2CC[C@H]1CC(OC(=O)C(CO)c1ccccc1)C2.[Br-]` (stereo partly shown) [anhydrous ipratropium bromide], the Sample weight came to 9.597 g in data set [5] (10 mins); 9.600 g in data set [5] (20 mins); 9.601 g in data set [5] (30 mins); 9.602 g in data set [5] (40 mins); 9.603 g in data set [5] (50 mins); 9.603 g in data set [5] (60 mins). For the same compound, the Sample weight is given as 9.602 g in data set [5] (70 mins); 9.602 g in data set [5] (80 mins); 9.603 g in data set [5] (90 mins); 9.606 g in data set [5] (2.5 days at 24° C. and 30% humidity); 9.568 g in data set [5] (after a further 24 hours in a desiccator). Further, in data set [5] (after 2.5 days at 24° C. and 30% humidity (9.606 g)), the “weight decrease relative to unmicronized ipratropium bromide monohydrate starting material” value is recorded as 3.94%. Besides, in data set [5] (after a further 24 hours in a desiccator (9.568 g)), the “weight loss relative to unmicronized ipratropium bromide monohydrate starting material” value was 4.14%. Further, the “agglomeration observed with magnifying glass (x10)” value in data set [1] was “significant agglomeration”. Besides, the “agglomerates under a microscope” value in data set [2] is on record as “essentially free of agglomerates”. In addition, the dispersion appearance result in data set [2] is “dispersed satisfactorily”.
